Tests used:
[1] = system: HeLa cells; assay: MTT proliferation assay, activity of stored everolimus samples; assay type: cell-based; details: for day of drastic decrease in anti-proliferative activity: tested at 5 nM
Description: (§1) Both HeLa cells (cervical cancer cell line) and SH-SY5Y cells (neuroblastoma cell line) were obtained from the American Type Culture Collection (Manassas, Va., USA) and cultured in Dulbecco's Modified Eagle's medium (DMEM with L-glutamine) supplemented with 10% (v/v) heat-inactivated foetal bovine serum (FBS), 100 U of penicillin, 100 U of streptomycin in a 5% CO2 humidified incubator at 37° C. Cell viability was verified with the standard Trypan Blue method.
(§2) The activity of everolimus in organic solution and in the micelles was determined by evaluating cell proliferation after the treatment. Briefly, the HeLa and SH-SY5Y cells were seeded in a 96-well plate at a concentration of 3000 cells/well and 6000 cells/well, respectively, and were maintained in the culture medium (100 μl) for 24 hours. After incubation at 37, 25 and 4° C. for 7, 14, 35, 50 and 77 days, the samples were suspended in the cell culture medium at a final concentration of 5 nM. Untreated cells, cells treated with a 10% v/v DMSO/saline solution (Veh) and empty micelles in saline solution, both diluted in a manner equivalent to the drug, were analysed as controls. A freshly prepared everolimus solution was used as the reference standard. Cell proliferation was evaluated using the 3-[4,5-dimethylthiazol-2-yl]-2,5-diphenyltetrazolium (MTT) assay (Sigma-Aldrich) according to the manufacturer's manual. The cells were mixed with 10 μl of MTT (0.5 mg/ml) and kept in a humidified incubator at 37° C. for 4 hours. Subsequently, 100 μl of a solubilisation solution (10% SDS with 0.01 N HCl) were added to each well. Formazan crystal solubilisation was carried out overnight in an incubator a 37° C. The next day, cell proliferation was evaluated by means of spectrophotometric readings taken with a Beckman Coulter DTX 880 multimode detector (Beckman Coulter Inc., Brea, Calif., USA) using a line at 589 nm and reference at 650 nm.
(§3) In order to correlate the stability of everolimus with the preservation of activity, samples incubated under the same conditions as in the stability study were dosed in HeLa and SH-SY5Y cells at established points in time. For this test the cell lines were seeded and maintained for 24 hours at 37° C. prior to treatment. […] The activity of the solution, by contrast, began to wane at 35 days, confirming a prolonged effect of inhibition of the micelles on cell proliferation. […] In order to better quantify the differences among the various samples in terms of the residual activity of everolimus, the residual anti-proliferative activity was calculated and is shown in FIGS. 3A and 3B.

[2] = system: SH-SY5Y cells; assay: as above; assay type: cell-based; details: for day of drastic decrease in anti-proliferative activity: tested at 5 nM
Description: as §1, §2, §3

[3] = Evaluation of stability by HPLC analysis of everolimus samples stored at 37, 25 and 4° C.; assay type: physicochemical
Description: Everolimus (Selleck Chemicals, Aurogene, Rome, Italy) was dissolved in DMSO (VWR, Milan, Italy) at a concentration of 1 mg/ml. The everolimus solution was subsequently diluted in 10% v/v DMSO/saline solution until obtaining a final concentration of 10 μg/ml. The resulting solution was then incubated at 4, 25 and 37° C.
Carefully weighed amounts of everolimus and distearoylphosphoethanolam ine-polyethylene glycol 2000 (DSPE-PEG2000, Lipoid, Switzerland) were dissolved in 3 ml of chloroform (Sigma-Aldrich, Milan, Italy) in a 50 ml flask. The solvent was removed by light evaporation at room temperature under a flow of nitrogen and vacuum dried for 1 hour to eliminate residual traces. The thin film obtained was reconstituted in an exact volume (3 mL) of aqueous medium. After complete reconstitution a clear micellar dispersion was obtained. The dispersion was then incubated at 4, 25 and 37° C.
The drug was quantified using the HPLC method. Briefly, the instrument used is a Portlab STAYER HPLC system equipped with a UV detector, a parallel pump and Triathlon autosampler (Portlab, Rome, Italy). The conditions used are the following: isocratic mode with acetonitrile:water (60:40, v/v) eluted at 0.8 ml/min and a Zorbax C8 column, 4.6 mm ID×250 mm, 5 μm (Agilent, Milan, Italy) equilibrated at 55° C. UV detection was performed at 278 nm. A calibration curve was constructed in the concentration interval of 0.62-10 μg/mL (r^2=0.9992).
The samples of solution were injected directly (injection volume 15 μL), whereas the micellar suspension was diluted 200 times in DMSO before being subjected to analysis. In order to reduce the carryover effects and an excessive accumulation of lipids in the column, samples of solution and micelles were injected alternately. The column was periodically washed with chloroform and methanol to avoid the accumulation of lipids and impairment of performance. All measurements were performed in triplicate and the results were expressed as the mean±D.S.

day by which everolimus had decayed (HPLC) ([3]; stored at 4° C.): ≤ 50 days
day by which everolimus had decayed (HPLC) ([3]; stored at 25° C.): ≤ 35 days
day by which everolimus had fallen to zero / decayed (HPLC) ([3]; stored at 37° C.): ≤ 14 days
SMILES: CO[C@H]1C[C@@H]2CC[C@@H](C)[C@@](O)(O2)C(=O)C(=O)N2CCCC[C@H]2C(=O)O[C@H]([C@H](C)C[C@@H]2CC[C@@H](OCCO)[C@H](OC)C2)CC(=O)[C@H](C)/C=C(\C)[C@@H](O)[C@@H](OC)C(=O)[C@H](C)C[C@H](C)/C=C/C=C/C=C/1C [solution, Everolimus]
day at which activity began to wane ([1]; 5 nM): 35 days
day of drastic decrease in anti-proliferative activity ([1]; sample stored at 4° C.): 50 days
day of drastic decrease in anti-proliferative activity ([1]; sample stored at 25° C.): 35 days
day of drastic decrease in anti-proliferative activity ([1]; sample stored at 37° C.): 14 days
day at which activity began to wane ([2]; 5 nM): 35 days
day of drastic decrease in anti-proliferative activity ([2]; sample stored at 4° C.): 50 days
day of drastic decrease in anti-proliferative activity ([2]; sample stored at 25° C.): 35 days
day of drastic decrease in anti-proliferative activity ([2]; sample stored at 37° C.): 14 days

Reference: US20230133251A1, “ADMINISTRATION OF mTOR INHIBITORS INTO THE CENTRAL NERVOUS SYSTEM” (priority 2020, published 2023)
